Results published in article PMC3871618 (PLoS ONE, 2013).
Read-outs that look alike come from different tables or passages of the source.

Columns and labels:
ABCB1 transporter [1] = target: T1, ABCB1 transporter (Homo sapiens, UniProt P08183); experiment: HOE (Hoechst 33342) accumulation in MDCKII-ABCB1 cells; format: cell-based; details: 8 µM HOE, end-point fluorescence at 30 min, 50% of each compound's own maximum inhibitory activity, read-out: IC50, inhibition of ABCB1-mediated efflux of HOE
T1 construct: expressed in transfected cells; host or cells: MDCKII (canine kidney) cells transduced with human ABCB1, from Prof; Piet Borst and Dr. Alfred Schinkel (The Netherlands Cancer Institute)
Description: (§1) To investigate the inhibitory activity of CDKi on ABCB1, the intracellular accumulation of HOE, a fluorescent ABCB1 substrate, was examined in both MDCKII-ABCB1 and MDCKII parent cell lines in the presence and absence of the tested compounds. The reduction in fluorescence intensity in ABCB1-transduced cells indicates the efflux activity of the ABCB1 transporter, its inhibition increases HOE accumulation and thus the intracellular fluorescence.
(§2) The assay was conducted as previously described and optimized for application in ABCB1-expressing cells. Briefly, MDCKII-ABCB1 and MDCKII parent cells were seeded at 5×10^4 cells per well on a 96-well culture plate and used for accumulation experiments after 24 h cultivation. The medium was removed and cells were washed twice with prewarmed phosphate buffered saline (PBS) at pH 7.4.

ABCB1 [2] = target: T2, ABCB1 (Homo sapiens, UniProt P08183); experiment: ABCB1-ATPase activation assay (baseline), Sf9 membranes; format: biochemical; design: purchased Solvo Biotechnology (Szeged, Hungary); host or cells: Sf9 insect cell membranes; details: for ABCB1 substrate classification: from ATPase activity in Sf9 membranes overexpressing human ABCB1; for Effect on baseline vanadate-sensitive ATPase activity of ABCB1: activation assay, 140 nM to 300 µM
Description: (§3) The drug efflux function of ABCB1 is linked to hydrolysis of ATP by ATPase, which is stimulated in the presence of ABCB1 substrates. In the activation assay, transported substrates can stimulate baseline vanadate-sensitive ATPase activity, whereas in the inhibition assay, which is carried out in the presence of a known activator of the transporter, inhibitors may reduce the maximal vanadate-sensitive ATPase activity. ATPase activity was measured by assessing the amount of phosphate liberated from ATP by the ABCB1 transporter using the […] ATPase kit for ABCB1 according to the manufacturer’s instructions. For this purpose, Sf9 cell membranes (4 µg protein per well) were mixed with each of the test compounds (singly) in solutions with concentrations ranging from 140 nM to 300 µM, then incubated at 37°C for 10 min in the presence or absence of 1.2 mM sodium orthovanadate. The reaction was started by adding 10 mM ATP solution (magnesium salt) to the reaction mixture, stopped 10 min later, and the absorbance at 590 nm was measured after a further 30 min incubation (GeniosPlus apparatus; Tecan, Männedorf, Switzerland). The ATPase activity in each sample was determined as the difference in liberated amounts of phosphate measured in the presence and absence of 1.2 mM sodium orthovanadate. Phosphate standards were prepared in each plate and verapamil served as a positive control for ABCB1 stimulation. The results are expressed as vanadate-sensitive ATPase activities.

ABCB1 [3] = target: T2, ABCB1; experiment: HOE (Hoechst 33342) accumulation in MDCKII-ABCB1 cells; format: cell-based; design: expressed in transfected cells; host or cells: MDCKII (canine kidney) cells transduced with human ABCB1, from Prof; Piet Borst and Dr. Alfred Schinkel (The Netherlands Cancer Institute); details: human, probe Hoechst 33342 (HOE), 8 µM, CDKi applied at their respective IC50 concentrations, % as strongly as LY, read-out: Inhibition of HOE efflux relative to LY
Description: as §1, §2

mouse P-glycoprotein = system: mouse P-glycoprotein; design: method as in PMID 15338193; details: cited from earlier work
ABCB1 transporter [4] = target: T1, ABCB1 transporter; experiment: DNR accumulation in MDCKII-ABCB1 cells (flow cytometry), normalized to parental MDCKII; format: cell-based; details: 2 µM DNR; for ABCB1 inhibition (DNR efflux): 20 µM CDKi
Description: Briefly, MDCKII-ABCB1 and MDCKII parent cells were seeded at 1.5×10^5 cells per well on a 12-well plate 24 h before the experiment. The medium was removed and the cells were washed with prewarmed PBS. The cells were then preincubated in Opti-MEM, with or without CDKi or LY at 37°C in 5% CO2 for 30 min. […] Accumulation was stopped by cooling the samples on ice, removing the medium and washing twice with ice-cold PBS. The cells were then detached from the plates with 10× trypsin-EDTA, resuspended in PBS with 2% FBS and transferred to Eppendorf tubes, which were placed on ice until analysis. […] The median fluorescence (MF) intensity of 10,000 measured cells was used to compare the fluorescence resulting from each of the treatments. […] The MF intensity of untreated cells was subtracted from fluorescence values obtained for all the measured samples.
To quantify the inhibitory effect of each tested compound on the ABCB1 transporter in the MDCKII-ABCB1 cell line, the ratio between the MF intensity with or without inhibitor was calculated and normalized to the effect in the parental MDCKII cell line according to the following equation [30]: [drawing 1]

ABCB1 [5] = target: T2, ABCB1; experiment: ABCB1-ATPase inhibition assay (verapamil-stimulated), Sf9 membranes; format: biochemical; design: purchased Solvo Biotechnology (Szeged, Hungary); host or cells: Sf9 insect cell membranes; details: 140 nM to 300 µM
Description: as §3

HCT-8 cells = experiment: XTT cytotoxicity, CDKi + DNR combination (Chou-Talalay); details: HCT-8, 72 h; for Fa at which combination with DNR shows synergistic cytotoxic effects: constant ratio; for DRI at Fa 0.5, drug II (CDKi) / DRI at Fa 0.75, drug II (CDKi) / DRI at Fa 0.9, drug II (CDKi): CDKi combined with DNR at constant ratio
Description: (§4) 1×10^4 MDCKII-ABCB1, 1×10^4 MDCKII parent, 2×10^4 HCT-8, or 2×10^4 HepG2 cells were grown in 96-well culture plates and incubated for 24 h. Individual CDKi diluted with growth medium were added to the exponentially growing cells and the resulting mixtures were incubated for 72 h at 37°C, 5% CO2. Cytotoxicity was then assessed using the XTT assay as follows: cells were incubated with 0.167 mg/mL XTT and 4 µM PMS in Opti-MEM for 2 h. The absorbance of the soluble formazan released was measured at 470 nm on a microplate reader (Tecan, Männedorf, Switzerland).
(§5) The combination index (CI) method of Chou-Talalay, based on the median-effect equation, was used to calculate combined drug effects. This approach offers quantitative definitions for additive, synergistic and antagonistic effects (CI values of 0.9–1.1, <0.9, and >1.1, respectively). Combination experiments were performed in a constant-ratio experimental design as recommended for the most efficient data analysis, and the generated data were used to quantify dose-reduction indices (DRI) for pairs of the tested drugs. DRI represents the fold-change of a focal effect when individual agents are used simultaneously relative to their separate effects, and their activity is synergistic if DRI > 1. […] The data acquired from these drug combination experiments were analyzed using CompuSyn ver. 3.0.1 software (ComboSyn Inc., Paramus, NJ, USA).

HepG2 cells = experiment: as above; format: cell-based, human; details: HepG2, 72 h; for Fa values for synergism of combination with DNR: constant ratio; for DRI at Fa 0.75, drug II (CDKi) / DRI at Fa 0.9, drug II (CDKi): CDKi combined with DNR at constant ratio
Description: as §4, §5

MDCKII-ABCB1 cells = experiment: as above; format: cell-based; details: for Combination index (CI) category, combination with DNR: constant ratio
Description: as §4, §5

MDCKII parent cells = experiment: as above; format: cell-based; details: 72 h; for DRI at Fa 0.5, drug II (CDKi) / DRI at Fa 0.75, drug II (CDKi) / DRI at Fa 0.9, drug II (CDKi): CDKi combined with DNR at constant ratio; for Fa above which combination with DNR is synergistic: constant ratio
Description: as §4, §5

ABCG2 = system: ABCG2; design: method as in PMID 22173067, PMID 24116053; details: in vitro and in situ; cited from earlier work
[6] = MDCKII-ABCB1, 72 h, CDKi combined with DNR at constant ratio

T2 sequence (P08183 whole entry): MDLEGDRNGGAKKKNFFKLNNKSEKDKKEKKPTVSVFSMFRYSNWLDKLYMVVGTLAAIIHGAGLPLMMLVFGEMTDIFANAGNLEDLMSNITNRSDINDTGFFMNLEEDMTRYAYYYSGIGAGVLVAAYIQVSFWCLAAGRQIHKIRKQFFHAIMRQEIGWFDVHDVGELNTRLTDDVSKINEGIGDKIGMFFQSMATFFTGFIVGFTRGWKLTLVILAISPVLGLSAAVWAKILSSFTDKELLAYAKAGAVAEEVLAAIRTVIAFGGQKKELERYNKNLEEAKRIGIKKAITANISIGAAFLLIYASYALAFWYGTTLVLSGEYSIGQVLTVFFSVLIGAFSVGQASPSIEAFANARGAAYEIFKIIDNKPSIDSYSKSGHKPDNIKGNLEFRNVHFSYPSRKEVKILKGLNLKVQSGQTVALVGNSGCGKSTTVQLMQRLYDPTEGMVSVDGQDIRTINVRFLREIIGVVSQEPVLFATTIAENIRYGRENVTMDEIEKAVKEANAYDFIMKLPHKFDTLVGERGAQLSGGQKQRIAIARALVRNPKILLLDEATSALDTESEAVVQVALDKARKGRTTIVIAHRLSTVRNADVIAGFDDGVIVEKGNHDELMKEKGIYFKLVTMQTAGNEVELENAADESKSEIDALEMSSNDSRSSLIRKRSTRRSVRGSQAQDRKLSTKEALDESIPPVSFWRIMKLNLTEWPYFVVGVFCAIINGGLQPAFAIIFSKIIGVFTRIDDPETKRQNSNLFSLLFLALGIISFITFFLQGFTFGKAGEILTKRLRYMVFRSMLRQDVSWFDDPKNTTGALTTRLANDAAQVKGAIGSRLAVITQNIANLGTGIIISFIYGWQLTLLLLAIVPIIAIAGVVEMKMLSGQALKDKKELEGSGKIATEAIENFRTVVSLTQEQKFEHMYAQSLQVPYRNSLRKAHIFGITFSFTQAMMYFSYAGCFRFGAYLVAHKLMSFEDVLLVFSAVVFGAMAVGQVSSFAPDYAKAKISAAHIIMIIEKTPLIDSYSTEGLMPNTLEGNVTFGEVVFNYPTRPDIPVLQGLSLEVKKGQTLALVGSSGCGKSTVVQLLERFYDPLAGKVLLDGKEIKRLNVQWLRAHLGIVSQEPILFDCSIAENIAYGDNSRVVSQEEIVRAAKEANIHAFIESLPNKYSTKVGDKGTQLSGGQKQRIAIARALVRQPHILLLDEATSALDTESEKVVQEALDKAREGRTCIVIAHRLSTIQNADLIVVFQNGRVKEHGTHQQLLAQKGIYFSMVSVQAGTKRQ
T1 sequence (P08183 whole entry): as above

| SMILES | IC50 (ABCB1 transporter [1]) | ABCB1 substrate classification (ABCB1 [2]) | inhibition at 30 min (ABCB1 [3]) | Effect on verapamil-stimulated vanadate-sensitive ATPase activity of ABCB1 (ABCB1 [5]) | Fa at which combination with DNR shows synergistic cytotoxic effects (HCT-8 cells) | DRI at Fa 0.5, drug II (CDKi) (HCT-8 cells) | DRI at Fa 0.75, drug II (CDKi) (HCT-8 cells) | DRI at Fa 0.9, drug II (CDKi) (HCT-8 cells) | Effect on baseline vanadate-sensitive ATPase activity of ABCB1 (ABCB1 [2]) | Fa values for synergism of combination with DNR (HepG2 cells) | DRI at Fa 0.75, drug II (CDKi) (HepG2 cells) | DRI at Fa 0.9, drug II (CDKi) (HepG2 cells) | ABCB1 inhibition (DNR efflux) (ABCB1 transporter [4]) | Combination index (CI) category, combination with DNR (MDCKII-ABCB1 cells; MDCKII-ABCB1, 72 h) | DRI at Fa 0.5, drug II (CDKi) (MDCKII-ABCB1 cells; [6]) | DRI at Fa 0.75, drug II (CDKi) (MDCKII-ABCB1 cells; [6]) | DRI at Fa 0.9, drug II (CDKi) (MDCKII-ABCB1 cells; [6]) | DRI at Fa 0.75, drug II (CDKi) (MDCKII parent cells) | DRI at Fa 0.9, drug II (CDKi) (MDCKII parent cells) | Fa above which combination with DNR is synergistic (MDCKII parent cells) | also measured |
| --- | --- | --- | --- | --- | --- | --- | --- | --- | --- | --- | --- | --- | --- | --- | --- | --- | --- | --- | --- | --- | --- |
| CC(C)(C)c1cnc(CSc2cnc(NC(=O)C3CCNCC3)s2)o1 [SNS-032] | 14.6 µM | non-substrates of ABCB1 | 23% | only slightly reduced it at the highest tested concentration |  |  |  |  |  |  |  |  |  |  |  |  |  |  |  |  | Substrate of mouse P-glycoprotein (brain levels Abcb1 knockout vs wild type mice) (mouse P-glycoprotein): substrate of mouse P-glycoprotein; Inhibition of DNR efflux/accumulation across applied range (ABCB1 transporter [4]; 1 - 20 µM CDKi): did not inhibit DNR accumulation at any tested concentration |
| CN1CC[C@H](c2c(O)cc(O)c3c(=O)cc(-c4ccccc4Cl)oc23)[C@H](O)C1 [flavopiridol] | 16.9 µM | non-substrates of ABCB1 | 31% | only slightly reduced it at the highest tested concentration |  |  |  |  |  |  |  |  |  |  |  |  |  |  |  |  |  |
| CC[C@H](CO)Nc1nc(NCc2ccccc2O)c2ncn(C(C)C)c2n1 [olomoucine II] | 6.4 µM | ABCB1 substrate and inhibitor | 48% | considerably and dose-dependently reduced | > 0.1 | 3.04±0.13 | 2.98±0.06 | 2.92±0.05 | increased the baseline vanadate-sensitive ATPase activity | 0.75 | 2.08±0.03 | 2.38±0.04 | significant (P<0.05) ABCB1 inhibition | synergistic category of drug combination effects across almost the whole fraction of cells affected (Fa) range | 2.83±0.27 | 2.84±0.19 | 2.86±0.10 | 2.63±0.05 | 2.75±0.02 | exceeded 0.4 | DRI at Fa 0.5, drug II (CDKi) (MDCKII parent cells): 2.51±0.08; ABCG2 inhibition (ABCG2): can inhibit ABCG2 in vitro and in situ |
| CC(C)[C@H](CO)Nc1nc(Nc2cccc(Cl)c2)c2ncn(C(C)C)c2n1 [purvalanol A] | 12.1 µM | non-substrates of ABCB1 | 86% | considerably and dose-dependently reduced | > 0.75 |  | 1.77±0.01 | 1.68±0.05 |  | 0.9 |  | 1.68±0.03 | significant (P<0.05) ABCB1 inhibition | synergistic category of drug combination effects across almost the whole fraction of cells affected (Fa) range | 4.03±0.08 | 3.73±0.06 | 3.45±0.04 | 2.40±0.04 | 2.39±0.06 | exceeded 0.4 | DRI at Fa 0.5, drug II (CDKi) (MDCKII parent cells): 2.41±0.03; ABCG2 inhibition (ABCG2): can inhibit ABCG2 in vitro and in situ |
| CC[C@H](CO)Nc1nc(NCc2ccccc2)c2ncn(C(C)C)c2n1 [roscovitine] | 10.3 µM |  | 57% | considerably and dose-dependently reduced | > 0.3 | 2.49±0.02 | 2.29±0.03 | 2.11±0.06 | increased the baseline vanadate-sensitive ATPase activity | 0.65 | 2.51±0.02 | 2.56±0.02 | significant (P<0.05) ABCB1 inhibition |  |  |  |  | 2.29±0.05 | 2.37±0.06 | > 0.45 | DRI at Fa 0.75, drug II (CDKi) (MDCKII-ABCB1 cells): 3.08±0.02; DRI at Fa 0.9, drug II (CDKi) (MDCKII-ABCB1 cells): 2.96±0.03 |
